Assay results: PubChem BioAssay AID330 (DTP/NCI, 2004)
Where “and” joins values, the source holds several entries; their conditions need not be identical. Equal values may be shown once. Toxic doses and inconclusive results are not listed. How the source made its calls: active means survival T/C of 150% or more; inactive means T/C below 125% in these data.

Test system: P388 leukemia ip, CD2F1 mice, survival T/C
Assay: NCI In Vivo Anticancer Drug Screen. Data for tumor model P388 Leukemia (intraperitoneal) in CD2F1 (CDF1) mice
Settings: endpoint: median survival time, higher = longer survival
Summary of the method: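 Mice carrying the transplanted tumor received test compound or vehicle. Survival was recorded in each group, and the value is the treated-group measurement divided by that of the vehicle-treated control group.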

[1] = dose: 50.0 mg/kg/injection, schedule: Q01DX009 (ip), vehicle: saline
[2] = dose: 100.0 mg/kg/injection, schedule: Q01DX009 (ip), vehicle: saline
[3] = dose: 200.0 mg/kg/injection, schedule: Q01DX009 (ip), vehicle: saline
[4] = dose: 50.0 mg/kg/injection, schedule: Q01DX009 (ip), vehicle: saline with Tween-80
[5] = dose: 100.0 mg/kg/injection, schedule: Q01DX009 (ip), vehicle: saline with Tween-80
[6] = dose: 200.0 mg/kg/injection, schedule: Q01DX009 (ip), vehicle: saline with Tween-80
[7] = dose: 50.0 mg/kg/injection, schedule: Q01DX005 (ip), vehicle: saline
[8] = dose: 100.0 mg/kg/injection, schedule: Q04DX003 (ip), vehicle: saline with Tween-80
[9] = dose: 200.0 mg/kg/injection, schedule: Q04DX003 (ip), vehicle: saline with Tween-80
[10] = dose: 400.0 mg/kg/injection, schedule: Q04DX003 (ip), vehicle: saline with Tween-80
[11] = dose: 60.0 mg/kg/injection, schedule: Q01DX005 (ip), vehicle: saline with Tween-80
[12] = dose: 120.0 mg/kg/injection, schedule: Q01DX005 (ip), vehicle: saline with Tween-80
[13] = dose: 240.0 mg/kg/injection, schedule: Q01DX005 (ip), vehicle: saline with Tween-80

Measured: T/C

COC1(OC)CC(CCl)OC1(OC)OC (stereo not drawn)
inactive: dose: 60.0 mg/kg/injection, schedule: Q01DX005 (ip), vehicle: saline 103 % of control | dose: 120.0 mg/kg/injection, schedule: Q01DX005 (ip), vehicle: saline 103 % of control | dose: 240.0 mg/kg/injection, schedule: Q01DX005 (ip), vehicle: saline 101 % of control

CCOC(=O)NOCOC
inactive: [1] 115 % of control | [2] 114 % of control | [3] 109 % of control

CCOc1c(N=Nc2ccccc2[N+](=O)[O-])c(C)nn1C(=S)S
inactive: dose: 60.0 mg/kg/injection, schedule: Q01DX005 (ip), vehicle: Klucel + Tween-80 103 % of control | dose: 120.0 mg/kg/injection, schedule: Q01DX005 (ip), vehicle: Klucel + Tween-80 97 % of control | dose: 240.0 mg/kg/injection, schedule: Q01DX005 (ip), vehicle: Klucel + Tween-80 92 % of control

c1ccc2c(SCCCCCSc3c4ccccc4nc4ccccc34)c3ccccc3nc2c1
inactive: dose: 60.0 mg/kg/injection, schedule: Q01DX005 (ip), vehicle: Klucel (hydroxypropylcellulose) (HPC) 97 % of control | dose: 120.0 mg/kg/injection, schedule: Q01DX005 (ip), vehicle: Klucel (hydroxypropylcellulose) (HPC) 89 % of control | dose: 240.0 mg/kg/injection, schedule: Q01DX005 (ip), vehicle: Klucel (hydroxypropylcellulose) (HPC) 88 % of control

CCOP(=S)(Oc1cnn(C)c(=O)c1OC)OC(C)C (stereo not drawn)
inactive: dose: 0.78 mg/kg/injection, schedule: Q01DX005 (ip), vehicle: saline with Tween-80 98 % of control | dose: 1.56 mg/kg/injection, schedule: Q01DX005 (ip), vehicle: saline with Tween-80 100 % of control | dose: 3.13 mg/kg/injection, schedule: Q01DX005 (ip), vehicle: saline with Tween-80 98 % of control

O=C1CSC(=S)N1Cc1ccncc1
inactive: [4] 97 % of control | [5] 98 % of control | [6] 101 % of control

CCN1C(SC)=NC(=O)C1(c1ccc(C)cc1)c1ccc(C)cc1
inactive: dose: 50.0 mg/kg/injection, schedule: Q01DX005 (ip), vehicle: Klucel (hydroxypropylcellulose) (HPC) 100 % of control | dose: 100.0 mg/kg/injection, schedule: Q01DX005 (ip), vehicle: Klucel (hydroxypropylcellulose) (HPC) 106 % of control | dose: 200.0 mg/kg/injection, schedule: Q01DX005 (ip), vehicle: Klucel (hydroxypropylcellulose) (HPC) 98 % of control

NC(CSCCCS(=O)(=O)O)C(=O)O (stereo not drawn)
inactive: [7] 101 % of control | dose: 100.0 mg/kg/injection, schedule: Q01DX005 (ip), vehicle: saline 98 % of control | dose: 200.0 mg/kg/injection, schedule: Q01DX005 (ip), vehicle: saline 100 % of control

CCC(=O)Nc1ccc(N=NN(C)C)cc1
inactive: dose: 6.25 mg/kg/injection, schedule: Q04DX002 (ip), vehicle: Klucel (hydroxypropylcellulose) (HPC) 97 % of control | dose: 12.5 mg/kg/injection, schedule: Q04DX002 (ip), vehicle: Klucel (hydroxypropylcellulose) (HPC) 106 % of control | dose: 25.0 mg/kg/injection, schedule: Q04DX002 (ip), vehicle: Klucel (hydroxypropylcellulose) (HPC) 100 % of control and 109 % of control

Cc1ccc(NC(=S)SCc2ccc(Cl)c(Cl)c2)cc1Br
inactive: [1] 113 % of control | [2] 100 % of control | [3] 90 % of control | dose: 200.0 mg/kg/injection, schedule: Q01DX009 (ip), vehicle: suspension in saline 95 % of control

CC(=O)OC(CCl)C1OC(CCl)C(OC(C)=O)O1 (stereo not drawn)
inactive: [4] 103 % of control | [5] 103 % of control | [6] 102 % of control

CC1=NCCN=C(C)C1N=Nc1ccc(S(=O)(=O)N=C(N)N)cc1
inactive: [8] 90 % of control | [9] 92 % of control | [10] 90 % of control

CCNC(=O)c1c(C)nc(-c2ccccc2)nc1Nc1ccc(OCC)cc1
inactive: [11] 98 % of control | [12] 98 % of control | [13] 103 % of control

CCN(CC)CCSCCCNc1cc(OC)cc2cccnc12
inactive: dose: 12.5 mg/kg/injection, schedule: Q01DX005 (ip), vehicle: saline 93 % of control | dose: 25.0 mg/kg/injection, schedule: Q01DX005 (ip), vehicle: saline 88 % of control | [7] 95 % of control and 98 % of control

NC(Cc1ccc([N+](=O)[O-])cc1)C(=O)O (stereo not drawn)
inactive: dose: 100.0 mg/kg/injection, schedule: Q01DX001 (ip), vehicle: saline 104 % of control | [8] 104 % of control | dose: 200.0 mg/kg/injection, schedule: Q01DX001 (ip), vehicle: saline 104 % of control | [9] 100 % of control | dose: 400.0 mg/kg/injection, schedule: Q01DX001 (ip), vehicle: saline 109 % of control | [10] 100 % of control

O=C(CC1C2CC3CC(C2)CC1C3)C1C2CC3CC(C2)CC1C3 (stereo not drawn)
inactive: [4] 97 % of control | [5] 97 % of control | [6] 97 % of control

CC(CCC(=O)O)C1CCC2C3CCC4CC(OC=O)CCC4(C)C3CC(OC=O)C12C (stereo not drawn)
inactive: [4] 95 % of control | dose: 50.0 mg/kg/injection, schedule: Q04DX003 (ip), vehicle: saline with Tween-80 105 % of control | [5] 90 % of control | [8] 100 % of control | [6] 90 % of control | [9] 100 % of control

CC1(c2ccc(Cl)cc2)OC(=O)C(=Cc2ccc([N+](=O)[O-])s2)C(=O)O1 (stereo not drawn)
inactive: [5] 122 % of control

COc1cc(/C=N/NC(=O)c2cc(OC)c(OC)c(OC)c2)ccc1O
inactive: [11] 99 % of control | [12] 101 % of control | [13] 95 % of control

CCOC(=O)c1ccc(NC(=O)Oc2cc(=O)oc3ccccc23)cc1
inactive: [11] 91 % of control | [12] 94 % of control | [13] 99 % of control

CC1(C)NCCc2c1[nH]c1ccccc21
inactive: dose: 50.0 mg/kg/injection, schedule: Q04DX002 (ip), vehicle: suspension in saline 100 % of control | dose: 100.0 mg/kg/injection, schedule: Q04DX002 (ip), vehicle: suspension in saline 100 % of control | dose: 200.0 mg/kg/injection, schedule: Q04DX002 (ip), vehicle: suspension in saline 100 % of control
